Assays:
[1] = test system: inflammatory cells in nasal lavage; experiment: Nasal lavage cell counts and differentials after nasal ragweed challenge; assay type: in vivo, Beagle dogs
Procedure: (§1) Ragweed sensitized beagle dogs (n=5) with preexisiting nasal and airway allergic responses were utilized in the animal study described in this Example. Dogs served as their own control and initially were treated with vehicle (sterile water) and then rested for 5 weeks prior to receiving the test compound. […] Based on the aerosol testing only 1.6 mg/dog could be delivered by inhalation during a 15 minute exposure (20 mg/ml solution). In addition, each dog received twice daily an intranasal instillation of 30 mg (2×375 μl of 20 mg/ml in each nostril) given within 30 minutes after the end of the inhalation exposures.
FIG. 1 summarizes the study design for characterizing the effects of CGP on rhinitis symptoms in ragweed sensitized Beagle dogs. The baseline nasal cavity volume was first measured 3 days (day −3) before each of the vehicle and CGP treatments. The dogs were treated with vehicle or CGP (day 0) twice daily with the target dosage described above. […]
Total nasal cells were determined using an automatic cell counter. […] At least four hundred inflammatory cells (or less if applicable) were counted and the percentage of specific cell types determined for each animal (slides in duplicates, 200 cells per slide). […]
Changes in nasal cavity volume or mediator levels were assessed by two way analysis of variance (ANOVA) with Bonferroni post-test. […]

[2] = Tolerability in dogs: daily observations, body weights, blood chemistry; assay type: in vivo, Beagle dogs
Procedure: as §1
Vehicle (sterile water) was given twice daily by inhalation (15 minutes) followed by intranasal instillation of water (2×250 μl in each nostril). […] The test-article and the compound solution were prepared in the morning of each treatment day. Vehicle and test-article were administered by inhalation and intranasal instillation twice a day. Dosing of vehicle or test compound was achieved by utilizing a face mask connected to a jet nebulizer for inhalation delivery followed by intranasal instillation in both nostrils using an Accuspray device.
Blood sample was collected by placing a venous (cephalic or saphenous) catheter in the leg prior to anesthesia or by venipuncture (jugular) using a syringe or needle-vacutainer. […]

[3] = test system: human subject having asthma; experiment: Application of CGP composition to a human subject having asthma; assay type: in vivo
From the text: A CGP composition similar to that described in Example 3, containing about 2% (w/w) CGP, was used in this study. A second human subject, a person having a life history of asthma, participated in this study.
The subject intentionally stopped using Advair Diskus (steroid) for about 2 weeks. Their allergies to molds were triggered by a ‘musty’ indoor environment resulting from several rainy and humid days. The allergies in turn triggered their asthma. The subject had felt a slight reduction in their airflow capacity for a few days, but had withheld use of albuterol inhaler (asthma rescue medication) during the day and only used it for severe wake-ups during the night. The subject had to use albuterol inhaler for three contiguous nights prior to the night described below.
In that night, at about 8:30 PM, the subject was experiencing difficulty breathing and wheezing, which signaled the start of an asthma attack. At about 8:35 PM, the subject applied two sprays of the CGP composition into each nostril and one spray of the CGP composition into their mouth for inhalation. An average spray delivery contained about 200 mg of the composition. […] At about 8:52 PM, the subject did two additional oral inhalations of the composition. At about 8:55 PM, the subject noticed that their wheeze and tightness in chest were relieved about 80% or more. All nasal drips had been sniffed back in. At about 8:58 PM, the subject perceived a gradual improvement and experienced no labor in breathing. At about 9:05 PM, the subject felt better, but desired full relief and wanted to increase breathing capacity. They applied one inhalation of the composition into each nostril; paused to get full breath, then applied two deep oral inhalations of the composition at about 9:07 PM. At about 9:27 PM, the subject felt fine and substantially back to normal. At about 9:37 PM, the subject felt improved. At about 10:16 PM, the subject felt fully (100%) recovered. At about 11:00 PM, the subject felt fine, no worry, and went to bed. […] At about 8:00 AM the next day, the subject felt a little tightness in chest. Instead of using 2 puffs of albuterol to start the day as they normally did, the subject used the CGP composition. They applied two sprays of the composition into each nostril and two sprays of the composition into their mouth for inhalation.

Substance: calcium glycerophosphate
- levels of macrophages in nasal lavage ([1]; following treatment, not detectable following vehicle): negligible levels
- number of inflammatory cells in the nasal lavage ([1]; pretreatment vs vehicle, Days 1 and 2 after nasal RW challenge): did tend to reduce the lung inflammatory cells compared to vehicle treatment, although none of the endpoints reached statistical significance
- daily observations, adverse health effects ([2]; dog, in vivo): No adverse health effects were found
- tolerability ([2]; dogs, BID inhalation + intranasal instillation, Days 0 to 5): well tolerated
- relief of tightness in chest next morning ([3]; about 8:00 AM next day, two sprays each nostril and two sprays into mouth instead of albuterol): felt relief and no need to use the albuterol inhaler
- relief at start of an asthma attack ([3]; about 8:40 PM, 5 min after first sprays, composition about 2% (w/w) CGP, one subject): mild relief
- wheeze and tightness in chest relieved ([3]; about 8:55 PM, after nasal sprays and oral inhalations from 8:35 PM, about 2% (w/w) CGP): ≥ 80%
- subject felt recovered ([3]; about 10:16 PM, first application 8:35 PM, about 2% (w/w) CGP): 100%
- night wake-up and inhaler use ([3]; night after the treated attack): no wake-up with shortness of breath and did not use inhaler during the night

— US9861647B2 (Prelief Inc., priority 2007, dated 2018)
